Experimental data taken from ChEMBL document CHEMBL1909046, “DrugMatrix in vitro pharmacology data”.

What was measured:
[1] = molecular target: D(3) dopamine receptor (Homo sapiens, UniProt P35462); assay: DRUGMATRIX: Dopamine D3 radioligand binding (ligand: [3H] Spiperone); assay type: cell membranes, CHO, Membrane; conditions: cho
[2] = molecular target: T1, Endothelin-1 receptor (Homo sapiens, UniProt P25101); assay type: cell membranes, Membrane; conditions: cho-k1; note: in other assays of this panel Not Active means under 50% inhibition at 10 µM
T1 sequence (P25101 whole entry): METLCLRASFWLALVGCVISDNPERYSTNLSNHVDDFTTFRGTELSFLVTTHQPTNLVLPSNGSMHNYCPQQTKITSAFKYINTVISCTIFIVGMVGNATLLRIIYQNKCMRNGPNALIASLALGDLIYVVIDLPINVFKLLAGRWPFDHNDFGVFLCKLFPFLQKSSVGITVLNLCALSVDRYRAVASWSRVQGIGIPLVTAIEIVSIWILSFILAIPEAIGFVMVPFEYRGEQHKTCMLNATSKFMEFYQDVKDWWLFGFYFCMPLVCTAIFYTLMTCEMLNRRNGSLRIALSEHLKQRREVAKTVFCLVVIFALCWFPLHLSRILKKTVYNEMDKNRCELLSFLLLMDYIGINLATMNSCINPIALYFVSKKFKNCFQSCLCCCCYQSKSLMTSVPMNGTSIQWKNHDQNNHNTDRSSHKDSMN

[3] = molecular target: T2, Neuropeptide Y receptor type 2 (Homo sapiens, UniProt P49146); assay type: cell membranes, KAN-TS, Membrane; conditions: kan-ts; note: in other assays of this panel Not Active means under 50% inhibition at 10 µM
T2 sequence (P49146 whole entry): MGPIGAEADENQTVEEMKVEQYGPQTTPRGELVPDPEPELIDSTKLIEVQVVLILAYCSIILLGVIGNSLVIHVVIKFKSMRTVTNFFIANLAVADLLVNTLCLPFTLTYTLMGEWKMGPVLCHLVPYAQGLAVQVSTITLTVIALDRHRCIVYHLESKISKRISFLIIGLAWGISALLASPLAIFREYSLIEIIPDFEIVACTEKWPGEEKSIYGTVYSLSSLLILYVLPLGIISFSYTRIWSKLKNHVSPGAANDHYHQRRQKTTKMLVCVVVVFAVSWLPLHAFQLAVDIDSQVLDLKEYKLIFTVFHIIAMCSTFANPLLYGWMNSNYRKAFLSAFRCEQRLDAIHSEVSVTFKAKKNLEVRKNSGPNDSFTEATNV

[4] = molecular target: Matrix metalloproteinase-9 (Homo sapiens, UniProt P14780); assay: biochemical; assay type: cell-based;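 note: inhibition of isolated MMP-9 enzyme activity toward a synthetic peptide substrate, from the DrugMatrix protease screening panel; in other assays of this panel Not Active means under 50% inhibition at 10 µM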
Sequence of Matrix metalloproteinase-9 (P14780 whole entry): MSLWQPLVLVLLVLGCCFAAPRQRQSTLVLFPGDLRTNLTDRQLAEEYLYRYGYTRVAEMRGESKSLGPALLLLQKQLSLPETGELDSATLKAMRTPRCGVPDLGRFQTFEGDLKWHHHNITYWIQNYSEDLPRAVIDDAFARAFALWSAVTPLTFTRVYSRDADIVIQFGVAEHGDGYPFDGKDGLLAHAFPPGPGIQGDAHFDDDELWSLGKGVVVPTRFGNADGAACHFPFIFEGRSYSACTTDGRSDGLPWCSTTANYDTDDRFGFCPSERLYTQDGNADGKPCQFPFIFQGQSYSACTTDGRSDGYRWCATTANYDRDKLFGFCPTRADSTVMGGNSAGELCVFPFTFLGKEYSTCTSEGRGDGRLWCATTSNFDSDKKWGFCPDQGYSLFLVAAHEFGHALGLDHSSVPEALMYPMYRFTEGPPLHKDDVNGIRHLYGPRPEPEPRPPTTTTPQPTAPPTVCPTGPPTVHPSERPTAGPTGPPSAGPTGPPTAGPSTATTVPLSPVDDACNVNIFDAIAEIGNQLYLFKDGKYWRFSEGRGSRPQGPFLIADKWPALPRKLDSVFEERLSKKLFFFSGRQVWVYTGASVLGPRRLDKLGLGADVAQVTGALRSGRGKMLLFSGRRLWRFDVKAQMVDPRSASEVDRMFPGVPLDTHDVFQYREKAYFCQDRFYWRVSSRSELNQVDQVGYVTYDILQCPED

[5] = molecular target: Mitogen-activated protein kinase 14 (Homo sapiens, UniProt Q16539); set-up: species or system Escherichia coli;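 note: inhibition of p38alpha enzyme activity in a biochemical kinase assay, with myelin basic protein serving as substrate; in other assays of this panel Not Active means under 50% inhibition at 10 µM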
Sequence of Mitogen-activated protein kinase 14 (Q16539 whole entry): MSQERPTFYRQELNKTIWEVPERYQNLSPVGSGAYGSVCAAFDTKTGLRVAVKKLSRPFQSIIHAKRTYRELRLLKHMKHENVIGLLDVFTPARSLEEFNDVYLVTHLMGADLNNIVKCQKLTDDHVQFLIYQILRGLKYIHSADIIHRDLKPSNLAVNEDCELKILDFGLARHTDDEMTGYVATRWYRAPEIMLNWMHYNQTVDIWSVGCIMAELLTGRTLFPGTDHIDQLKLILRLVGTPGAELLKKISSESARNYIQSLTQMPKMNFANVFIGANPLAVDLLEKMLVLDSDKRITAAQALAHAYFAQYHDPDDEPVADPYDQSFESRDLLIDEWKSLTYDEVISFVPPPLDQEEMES

[6] = molecular target: 5-hydroxytryptamine receptor 1B (Rattus norvegicus, UniProt P28564); assay type: cell membranes, Wistar, Cerebral cortex, Membrane; note: in other assays of this panel Not Active means under 50% inhibition at 10 µM
Sequence of 5-hydroxytryptamine receptor 1B (P28564 whole entry): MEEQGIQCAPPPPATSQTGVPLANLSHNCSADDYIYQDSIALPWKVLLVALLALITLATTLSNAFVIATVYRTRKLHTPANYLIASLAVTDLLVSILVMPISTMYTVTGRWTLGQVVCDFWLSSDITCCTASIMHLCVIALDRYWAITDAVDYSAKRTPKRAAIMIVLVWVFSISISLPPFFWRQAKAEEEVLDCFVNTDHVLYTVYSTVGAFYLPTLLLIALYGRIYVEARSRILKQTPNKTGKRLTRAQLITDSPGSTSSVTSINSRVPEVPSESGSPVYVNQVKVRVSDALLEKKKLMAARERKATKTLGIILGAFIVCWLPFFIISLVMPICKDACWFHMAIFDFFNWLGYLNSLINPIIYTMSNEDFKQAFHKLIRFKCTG

Measured: IC50

Sequence of D(3) dopamine receptor (P35462 whole entry): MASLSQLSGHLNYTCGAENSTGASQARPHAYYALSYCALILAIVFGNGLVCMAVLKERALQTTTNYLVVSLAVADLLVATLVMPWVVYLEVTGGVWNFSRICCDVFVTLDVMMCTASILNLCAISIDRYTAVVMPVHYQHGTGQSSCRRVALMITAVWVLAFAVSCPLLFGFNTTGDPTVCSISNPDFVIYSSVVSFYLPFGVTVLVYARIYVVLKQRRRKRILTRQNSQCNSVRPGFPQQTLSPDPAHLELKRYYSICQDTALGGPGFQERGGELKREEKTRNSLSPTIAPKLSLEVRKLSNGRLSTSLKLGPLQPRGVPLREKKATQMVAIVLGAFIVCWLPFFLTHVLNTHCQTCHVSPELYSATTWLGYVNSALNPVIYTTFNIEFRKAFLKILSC

COc1c2occc2cc2ccc(=O)oc12 [METHOXSALEN]
Not Active: [1] | [2] | [3] | [4] | [5] | [6]

C[C@H]1C[C@@H]2[C@H]([C@@H](O)C[C@@]3(C)[C@H]2CC[C@]3(O)C(=O)CO)[C@@]2(C)C=CC(=O)C=C12 [METHYLPREDNISOLONE]
Not Active: [1] | [2] | [3] | [4] | [5] | [6]

Cc1cccc(C)c1OCC(C)N (stereo not drawn) [MEXILETINE]
Not Active: [1] | [2] | [3] | [4] | [5] | [6]

Nc1cc(N2CCCCC2)nc(N)[n+]1[O-] [MINOXIDIL]
Not Active: [1] | [2] | [3] | [4] | [5] | [6]

CO[C@H]1/C=C/O[C@@]2(C)Oc3c(C)c(O)c4c(O)c(c(/C=N/N5CCN(C6CCCC6)CC5)c(O)c4c3C2=O)NC(=O)/C(C)=C\C=C\[C@H](C)[C@H](O)[C@@H](C)[C@@H](O)[C@@H](C)[C@H](OC(C)=O)[C@@H]1C [RIFAPENTINE]
Not Active: [1] | [2] | [3] | [4] | [5] | [6]

CCCCOc1cc(CC2CNC(=O)N2)ccc1OC (stereo not drawn) [RO-201724]
Not Active: [1] | [2] | [3] | [4] | [5] | [6]

CC[C@@H](C(=O)[C@@H](C)[C@@H](O)[C@H](C)[C@@H]1O[C@@H]([C@@H](CC)C(=O)O)CC[C@@H]1C)[C@H]1O[C@]2(C=C[C@@H](O)[C@]3(CC[C@@](C)([C@H]4CC[C@](O)(CC)[C@H](C)O4)O3)O2)[C@H](C)C[C@@H]1C [SALINOMYCIN]
Not Active: [1] | [2] | [3] | [4] | [5] | [6]

O=C(Oc1ccccc1C(=O)O)c1ccccc1O [SALSALATE]
Not Active: [1] | [2] | [3] | [4] | [5] | [6]

O=C(O)c1cn(-c2ccc(F)cc2)c2cc(N3CCNCC3)c(F)cc2c1=O [SARAFLOXACIN]
Not Active: [1] | [2] | [3] | [4] | [5] | [6]

CN[C@H]1CC[C@@H](c2ccc(Cl)c(Cl)c2)c2ccccc21 [SERTRALINE]
Not Active: [1] | [2] | [3] | [4] | [5] | [6]

CC(C)NCC(O)c1ccc(NS(C)(=O)=O)cc1 (stereo not drawn) [SOTALOL]
Not Active: [1] | [2] | [3] | [4] | [5] | [6]

O.O.O.O.O.O.[Cl-].[Cl-].[Sr+2] [STRONTIUM CHLORIDE HEXAHYDRATE]
Not Active: [1] | [2] | [3] | [4] | [5] | [6]

O=C1C(CC[S+]([O-])c2ccccc2)C(=O)N(c2ccccc2)N1c1ccccc1 (stereo not drawn) [SULFINPYRAZONE]
Not Active: [1] | [2] | [3] | [4] | [5] | [6]

NC(=O)N1C(=O)/C(=C(\O)c2cccs2)c2cc(Cl)ccc21 [TENIDAP]
Not Active: [1] | [2] | [3] | [4] | [5] | [6]

COc1cc2nc(N3CCN(C(=O)C4CCCO4)CC3)nc(N)c2cc1OC (stereo not drawn) [TERAZOSIN]
Not Active: [1] | [2] | [3] | [4] | [5] | [6]

CN(C/C=C/C#CC(C)(C)C)Cc1cccc2ccccc12 [TERBINAFINE]
Not Active: [1] | [2] | [3] | [4] | [5] | [6]

CCCCNc1ccc(C(=O)OCCN(C)C)cc1 [TETRACAINE]
Not Active: [1] | [2] | [3] | [4] | [5] | [6]

Cn1c(=O)c2nc[nH]c2n(C)c1=O.O [THEOPHYLLINE]
Not Active: [1] | [2] | [3] | [4] | [5] | [6]
